Assay results reported in patent US6962937B2, “Imidazolidine derivatives, their preparation and their use” (Aventis Pharma Deutschland GmbH, priority 2001, dated 2005).
Where a name gives a salt, the structure may show the parent alone.

target: T1, interaction between VCAM-1 and VLA-4 (Homo sapiens, UniProt P05556+P13612); assay: U937/VCAM-1 cell adhesion test (adhesion of U937 cells to hVCAM-1 (1-3)-IgG); format: cell-based; conditions: inhibition of adhesion of human U937 cells (ATCC CRL 1593) to hVCAM-1 (1-3)-IgG
T1 construct: supplied in their natural form as surface molecules on human U937 cells; host or cells: U937 cells (endogenous VLA-4); The partner hVCAM-1(1-3)-IgG was made in house in transfected COS cells (ATCC CRL1651) and used as culture supernatant
T1 sequence (P13612 34-1032): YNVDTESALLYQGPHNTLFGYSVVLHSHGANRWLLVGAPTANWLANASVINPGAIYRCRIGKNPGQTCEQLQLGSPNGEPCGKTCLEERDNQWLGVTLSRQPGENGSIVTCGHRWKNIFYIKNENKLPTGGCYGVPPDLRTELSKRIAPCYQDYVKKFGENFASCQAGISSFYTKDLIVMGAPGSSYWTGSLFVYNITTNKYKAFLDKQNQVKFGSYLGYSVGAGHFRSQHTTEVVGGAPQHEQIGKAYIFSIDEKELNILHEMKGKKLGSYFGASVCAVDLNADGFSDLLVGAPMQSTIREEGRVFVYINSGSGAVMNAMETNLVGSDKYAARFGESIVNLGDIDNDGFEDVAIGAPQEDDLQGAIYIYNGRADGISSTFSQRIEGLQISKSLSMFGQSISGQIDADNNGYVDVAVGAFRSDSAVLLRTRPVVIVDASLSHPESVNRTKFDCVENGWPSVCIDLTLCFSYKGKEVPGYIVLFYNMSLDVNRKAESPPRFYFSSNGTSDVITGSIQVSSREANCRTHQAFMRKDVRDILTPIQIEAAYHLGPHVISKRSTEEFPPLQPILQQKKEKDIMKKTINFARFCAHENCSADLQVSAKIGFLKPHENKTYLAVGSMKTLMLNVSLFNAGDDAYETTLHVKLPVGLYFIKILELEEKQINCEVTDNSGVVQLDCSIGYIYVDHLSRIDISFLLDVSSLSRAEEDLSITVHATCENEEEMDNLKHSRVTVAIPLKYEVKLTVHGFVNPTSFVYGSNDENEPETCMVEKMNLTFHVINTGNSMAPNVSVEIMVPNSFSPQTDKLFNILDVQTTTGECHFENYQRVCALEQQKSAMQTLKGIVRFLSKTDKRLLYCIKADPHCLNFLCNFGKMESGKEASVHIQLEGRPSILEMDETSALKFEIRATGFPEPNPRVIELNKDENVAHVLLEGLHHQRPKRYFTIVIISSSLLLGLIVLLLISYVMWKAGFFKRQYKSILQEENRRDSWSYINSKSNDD
T1 sequence (P05556 21-798): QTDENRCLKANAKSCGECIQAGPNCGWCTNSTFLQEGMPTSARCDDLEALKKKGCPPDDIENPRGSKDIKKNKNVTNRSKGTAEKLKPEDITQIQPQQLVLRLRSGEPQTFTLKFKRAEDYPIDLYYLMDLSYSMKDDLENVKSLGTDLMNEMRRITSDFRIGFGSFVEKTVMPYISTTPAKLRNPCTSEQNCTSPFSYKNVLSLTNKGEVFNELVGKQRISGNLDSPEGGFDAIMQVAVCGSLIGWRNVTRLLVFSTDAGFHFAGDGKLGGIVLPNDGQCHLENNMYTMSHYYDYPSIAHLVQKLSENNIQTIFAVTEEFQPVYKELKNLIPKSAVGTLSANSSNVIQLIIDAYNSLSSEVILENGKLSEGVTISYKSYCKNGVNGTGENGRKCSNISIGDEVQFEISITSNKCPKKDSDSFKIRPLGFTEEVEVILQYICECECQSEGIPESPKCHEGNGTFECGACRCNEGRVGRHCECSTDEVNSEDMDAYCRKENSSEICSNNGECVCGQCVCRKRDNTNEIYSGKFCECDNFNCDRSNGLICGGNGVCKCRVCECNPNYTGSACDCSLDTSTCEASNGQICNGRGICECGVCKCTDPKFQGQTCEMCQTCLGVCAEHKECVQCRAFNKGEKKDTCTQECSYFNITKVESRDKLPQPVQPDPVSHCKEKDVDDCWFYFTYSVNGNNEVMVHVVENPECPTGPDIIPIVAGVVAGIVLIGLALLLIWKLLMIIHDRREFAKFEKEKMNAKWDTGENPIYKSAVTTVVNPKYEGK
Description: A) U937/VCAM-1 Cell Adhesion Test (Assay for Measuring the Adhesion of U937 Cells (ATCC CRL 1593) to hVCAM-1 (1-3)-IqG)
The assay described below which is specific for the interaction between VCAM-1 and VLA-4, is used as the method for testing the activity of the compounds of the formula I on this interaction. The cellular binding partners, that is the VLA-4 integrins, are supplied in their natural form as surface molecules on human U937 cells (ATCC CRL 1593) which belong to the leukocyte group. The specific binding partners employed are recombinantly prepared soluble fusion proteins which consist of the extracytoplasmic domain of human VCAM-1 and the constant region of a human immunoglobulin of the IgG1 subclass.
1. Preparation of Human VCAM-1 (1-3)-IqG and Human CD4-IgG
A gene construct for expressing the extracellular domain of human VCAM-1 linked to the gene sequence for the heavy chain of human immunoglobulin IgG1 (hinge, CH2 and CH3 regions) (from Dr. Brian Seed, Massachusetts General Hospital, Boston, USA; cf. Damle and Aruffo, Proc. Natl. Acad. Sci. USA, 1991, 88:6403) was employed. The soluble fusion protein hVCAM-1 (1-3)-IgG contained the three aminoterminal extracellular immunoglobulin-like domains of human VCAM-1 (Damle and Aruffo, Proc. Natl. Acad. Sci. USA, 1991, 88:6403). CD4-IgG (Zettimeissl et al., DNA and Cell Biology, 1990, 9:347) was used as the fusion protein for negative controls. The recombinant proteins were expressed as soluble proteins following the DEAE/dextran-mediated transfection of DNA into COS cells (ATCC CRL1651) using standard procedures (Ausubel et a., Current protocols in molecular biology, John Wiley & Sons, Inc., 1994).
2. Assay for Measuring the Adhesion of U937 Cells to hVCAM-1 (1-3)-IgG […]
2.6 U937 cells were incubated in Fc receptor blocking buffer for 20 minutes and then pipetted in at a concentration of 1×10^6/mL and in a quantity of 100 μL per well (final volume: 125 μL/well). […]

IC50 | SMILES
8.2 nM | COc1cc(CN2C(=O)N([C@H](CN[C@@H](CC(=O)O)c3ccc(OC)c(OC)c3)CC3CC3)C(=O)C2(C)C)ccc1NC(=O)Nc1ccccc1C [Example 14, (S)-3-((S)-2-(4,4-Dimethyl-3-(4-(3-(2-methylphenyl)ureido)-3-methoxybenzyl)-2,5-dioxoimidazolidin-1-yl)-3-cyclopropylpropylamino)-3-(3,4-dimethoxyphenyl)propionic acid hydrochloride]
24.4 nM | COc1cc(CN2C(=O)N([C@H](CN[C@@H](CC(=O)O)c3ccc4c(c3)OCO4)CC3CC3)C(=O)C2(C)C)ccc1NC(=O)Nc1ccccc1C [Example 17, (S)-3-((S)-2-(4,4-Dimethyl-3-(4-(3-(2-methylphenyl)ureido)-3-methoxybenzyl)-2,5-dioxoimidazolidin-1-yl)-3-cyclopropylpropylamino)-3-(3,4-methylenedioxyphenyl)propionic acid hydrochloride]
66.2 nM | COc1cc(CN2C(=O)N([C@H](CN[C@@H](CC(=O)O)c3ccccc3)CC3CC3)C(=O)C2(C)C)ccc1NC(=O)Nc1ccccc1C [Example 6, (S)-3-((S)-2-(4,4-Dimethyl-3-(4-(3-(2-methylphenyl)ureido)-3-methoxybenzyl)-2,5-dioxoimidazolidin-1-yl)-3-cyclopropylpropylamino)-3-phenylpropionic acid hydrochloride]
